What was measured:
[1] = test system: Surinam grass; test: Test B pre-/postemergence herbicide test; type: in vivo, Urochloa decumbens; details: for Surinam Grass plant response rating: postemergence
Method in brief: (§1)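 Visual rating, 0 (no effect) to 100 (complete control), versus untreated controls after 13–15 d in greenhouse. Pre- and postemergence applications (postemergence plants 2–18 cm, 1–4 leaves); flooded paddy arm at 2-leaf stage. Compounds in non-phytotoxic solvent plus surfactant.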

[2] = test system: ducksalad; test: Test B flooded paddy test; type: in vivo, Heteranthera limosa; details: 1000 g ai/ha, scale 0 to 100 (0 no effect, 100 complete control)
Method in brief: (§2)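 Plants grow to 1- to 4-leaf stage (2–18 cm) for postemergence spraying, or to 2-leaf stage for the paddy test. Formulated compound is applied. Greenhouse holding lasts 13–15 days. Response is scored visually relative to controls, 0 no effect to 100 complete control; a dash means no result.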

[3] = test system: wheat; test: Test B postemergence herbicide test; type: in vivo, Triticum aestivum; design: key to Wheat plant response rating: 0 = no effect, 100 = complete control; details: postemergence
Method in brief: as §2

[4] = test system: barnyardgrass; test: Test B flooded paddy test; type: in vivo, Echinochloa crus-galli; details: 1000 g ai/ha, scale 0 to 100 (0 no effect, 100 complete control)
Method in brief: as §2

[5] = test system: lambsquarters; test: Test B pre-/postemergence herbicide test; type: in vivo, Chenopodium album; details: for Lambsquarters plant response rating: postemergence
Method in brief: as §1

[6] = test system: barnyardgrass; test: Test B pre-/postemergence herbicide test; type: in vivo, Echinochloa crus-galli; details: for Barnyardgrass plant response rating: postemergence
Method in brief: (§3)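 Species tested were Echinochloa crus-galli, Ipomoea coccinea, Xanthium strumarium and Oryza sativa, treated both before emergence and at the 1- to 4-leaf stage; rice and barnyardgrass were also tested under flooding at 2 leaves. Greenhouse incubation lasted 13–15 days before visual 0–100 scoring.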

[7] = test system: cocklebur; test: Test B pre-/postemergence herbicide test; type: in vivo, Xanthium strumarium; details: for Cocklebur plant response rating: postemergence
Method in brief: as §3

[8] = test system: large crabgrass; test: Test B pre-/postemergence herbicide test; type: in vivo, Digitaria sanguinalis; details: for Crabgrass, Large plant response rating: postemergence
Method in brief: as §1

[9] = test system: blackgrass; test: Test B postemergence herbicide test; type: in vivo, Alopecurus myosuroides; details: postemergence
Method in brief: as §2

[10] = test system: rice; test: Test B flooded paddy test; type: in vivo, Oryza sativa; details: 1000 g ai/ha, scale 0 to 100 (0 no effect, 100 complete control)
Method in brief: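 Read-out: visual comparison with controls, scored 0 to 100, where 100 means complete control and 0 no effect. Formulated chemicals were applied postemergence to plants 2–18 cm tall (1- to 4-leaf), or to flooded-paddy plants at the 2-leaf stage, then held 13 to 15 days under glass.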

[11] = test system: giant foxtail; test: Test B pre-/postemergence herbicide test; type: in vivo, Setaria faberi; details: for Foxtail, Giant plant response rating: postemergence
Method in brief: as §1

[12] = test system: velvetleaf; test: Test B pre-/postemergence herbicide test; type: in vivo, Abutilon theophrasti; details: for Velvetleaf plant response rating: postemergence
Method in brief: as §1

[13] = test system: small flower umbrella sedge; test: Test B flooded paddy test; type: in vivo, Cyperus difformis; details: 1000 g ai/ha, scale 0 to 100 (0 no effect, 100 complete control)
Method in brief: as §2

[14] = test system: morningglory; test: Test B pre-/postemergence herbicide test; type: in vivo, Ipomoea coccinea; details: for Morningglory plant response rating: postemergence
Method in brief: as §3

[15] = test system: pigweed; test: Test B pre-/postemergence herbicide test; type: in vivo, Amaranthus retroflexus; details: for Pigweed plant response rating: postemergence
Method in brief: as §1

[16] = 125 g ai/ha, 0 = no effect, 100 = complete control, preemergence
[17] = 125 g ai/ha, visual rating, scale 0 (no effect) to 100 (complete control)
[18] = 500 g ai/ha, visual rating, 0 = no effect, 100 = complete control, preemergence
[19] = 500 g ai/ha, scale 0 to 100, 0 is no effect, 100 is complete control
[20] = 125 g ai/ha, 0 is no effect, 100 is complete control, preemergence

CCN1N=C(C(C)(C)C)CC1C(=O)Nc1cc(C(=O)N2CCCC2)ccc1F (racemic) [Compound 309]
Surinam Grass plant response rating (0 to 100 scale) [1, 16]: 60 | Surinam Grass plant response rating [1, 17]: 10 | Plant response rating, Surinam Grass [1, 18]: 100 | Surinam Grass plant response rating [1, 19]: 40 | Ducksalad plant response rating [2]: 90 | Wheat plant response rating [3, 17]: 20 | Wheat plant response rating [3, 19]: 30 | Barnyardgrass plant response rating [4]: 90 | Lambsquarters plant response rating (0 to 100 scale) [5, 16]: 90 | Lambsquarters plant response rating [5, 17]: 40 | Plant response rating, Lambsquarters [5, 18]: 90 | Lambsquarters plant response rating [5, 19]: 80 | Barnyardgrass plant response rating (0 to 100 scale) [6, 16]: 80 | Barnyardgrass plant response rating [6, 17]: 20 | Plant response rating, Barnyardgrass [6, 18]: 100 | Barnyardgrass plant response rating [6, 19]: 40 | Cocklebur plant response rating (0 to 100 scale) [7, 16]: 30 | Cocklebur plant response rating [7, 17]: 40 | Plant response rating, Cocklebur [7, 18]: 80 | Cocklebur plant response rating [7, 19]: 70 | Crabgrass, Large plant response rating (0 to 100 scale) [8, 16]: 60 | Crabgrass, Large plant response rating [8, 17]: 0 | Plant response rating, Crabgrass, Large [8, 18]: 100 | Crabgrass, Large plant response rating [8, 19]: 40 | Blackgrass plant response rating [9, 17]: 10 | Blackgrass plant response rating [9, 19]: 30 | Rice plant response rating [10]: 80 | Foxtail, Giant plant response rating (0 to 100 scale) [11, 16]: 80 | Foxtail, Giant plant response rating [11, 17]: 20 | Plant response rating, Foxtail, Giant [11, 18]: 100 | Foxtail, Giant plant response rating [11, 19]: 40 | Velvetleaf plant response rating [12, 17]: 20 | Plant response rating, Velvetleaf [12, 18]: 100 | Velvetleaf plant response rating [12, 19]: 40 | Sedge, Umbrella plant response rating [13]: 80 | Morningglory plant response rating (0 to 100 scale) [14, 16]: 0 | Morningglory plant response rating [14, 17]: 0 | Plant response rating, Morningglory [14, 18]: 0 | Morningglory plant response rating [14, 19]: 40 | Pigweed plant response rating (0 to 100 scale) [15, 16]: 70 | Pigweed plant response rating [15, 17]: 50 | Plant response rating, Pigweed [15, 18]: 100 | Pigweed plant response rating [15, 19]: 70

CCC1=NN(C(C)(C)C)CC1C(=O)Nc1cc(C(=O)N2CC=CC2)ccc1F (racemic) [Compound 340]
Plant response rating (0 to 100 scale), Surinam Grass [1, 20]: 80 | Surinam Grass plant response rating [1, 17]: 10 | Plant response rating, Surinam Grass [1, 18]: 100 | Surinam Grass plant response rating [1, 19]: 20 | Ducksalad plant response rating [2]: 90 | Wheat plant response rating [3, 17]: 0 | Wheat plant response rating [3, 19]: 10 | Barnyardgrass plant response rating [4]: 90 | Plant response rating (0 to 100 scale), Lambsquarters [5, 20]: 90 | Lambsquarters plant response rating [5, 17]: 30 | Plant response rating, Lambsquarters [5, 18]: 100 | Lambsquarters plant response rating [5, 19]: 70 | Plant response rating (0 to 100 scale), Barnyardgrass [6, 20]: 80 | Barnyardgrass plant response rating [6, 17]: 10 | Plant response rating, Barnyardgrass [6, 18]: 100 | Barnyardgrass plant response rating [6, 19]: 20 | Plant response rating (0 to 100 scale), Cocklebur [7, 20]: 20 | Cocklebur plant response rating [7, 17]: 0 | Plant response rating, Cocklebur [7, 18]: 50 | Cocklebur plant response rating [7, 19]: 20 | Plant response rating (0 to 100 scale), Crabgrass, Large [8, 20]: 80 | Crabgrass, Large plant response rating [8, 17]: 10 | Plant response rating, Crabgrass, Large [8, 18]: 100 | Crabgrass, Large plant response rating [8, 19]: 20 | Blackgrass plant response rating [9, 17]: 20 | Blackgrass plant response rating [9, 19]: 30 | Rice plant response rating [10]: 80 | Plant response rating (0 to 100 scale), Foxtail, Giant [11, 20]: 60 | Foxtail, Giant plant response rating [11, 17]: 20 | Plant response rating, Foxtail, Giant [11, 18]: 100 | Foxtail, Giant plant response rating [11, 19]: 40 | Plant response rating (0 to 100 scale), Velvetleaf [12, 20]: 70 | Velvetleaf plant response rating [12, 17]: 20 | Velvetleaf plant response rating [12, 19]: 40 | Sedge, Umbrella plant response rating [13]: 80 | Plant response rating (0 to 100 scale), Morningglory [14, 20]: 30 | Morningglory plant response rating [14, 17]: 10 | Morningglory plant response rating [14, 19]: 40 | Plant response rating (0 to 100 scale), Pigweed [15, 20]: 100 | Pigweed plant response rating [15, 17]: 50 | Plant response rating, Pigweed [15, 18]: 100 | Pigweed plant response rating [15, 19]: 80
